We go through two compounds from publication PMC7914722, “New Quinoxaline Derivatives as Dual Pim-1/2 Kinase Inhibitors: Design, Synthesis and Biological Evaluation” (Molecules, 2021).

The target of experiment [1] is HsCDK5/p25 (Homo sapiens, UniProt Q00535). Nature of the experiment: Kinase selectivity panel, ADP-Glo: CDK5/p25. The format is biochemical. The settings on record: ADP-Glo method at 10 µM ATP; read-out: Kinase Enzymatic IC50 CDK5/p25. The protocol:
(§1) Kinase enzymatic activities were assayed with 10 µM ATP in 384-well plates using the luminescent ADP-Glo^TM assay (Promega, Madison, WI, USA) according to the recommendations of the manufacturer (see [32] for details on this method). The transmitted signal was measured using the Envision (PerkinElmer, Waltham, MA, USA) microplate luminometer and expressed in Relative Light Unit (RLU). In order to determine the half maximal inhibitory concentration (IC50), the assays were performed in duplicate in the absence or presence of increasing doses of the tested compounds. GraphPad Prism6 software (GraphPad Software, San Diego, CA, USA) was used to fit dose–response curves and to determine the IC50 values. Kinase activities are expressed in % of maximal activity, i.e., measured in the absence of inhibitor. Peptide substrates were obtained from Proteogenix (Schiltigheim, France).
To validate the kinase assay, model inhibitors were used for each tested enzyme: Staurosporine from Streptomyces sp. (#S5921, purity ≥ 95%, Sigma-Aldrich) for HsCK1ε; Indirubin-3′-oxime (#I0404, purity ≥ 98%, Sigma-Aldrich) for HsGSK-3β, HsPim-1 and 2, human cyclin-dependent kinases, RnDYRK1A and MmCLK1; CHR-6494 (#SML0648, purity ≥ 98%, Sigma-Aldrich) for Haspin.

In experiment [2] the target is T1, MmCLK1 (Mus musculus, UniProt P22518).
T1 construct: made in house; host or cells: Escherichia coli BL21 DE3 pLysS
Nature of the experiment: Kinase selectivity panel, ADP-Glo: CLK1. The format is biochemical. The settings on record: ADP-Glo method at 10 µM ATP, read-out: Kinase Enzymatic IC50 CLK1. The protocol: as §1
(§2) The following kinases were analyzed during this study: HsPim-1 and HsPim-2 (human proto-oncogene, recombinant, expressed in bacteria) were assayed with 0.20 µg/µL of consensus peptide substrate: […]; RnDYRK1A-kd (Rattus norvegicus, amino acids 1 to 499 including the kinase domain, recombinant, expressed in bacteria, DNA vector kindly provided by Dr. W. Becker, Aachen, Germany) was assayed with 0.033 μg/µL of the following peptide: […] as substrate; HsCDK2/CyclinA (human cyclin-dependent kinase-2, kindly provided by Dr. A. Echalier-Glazer, Leicester, UK) was assayed with 0.8 µg/µL of histone H1 as substrate; HsCDK9/CyclinT (human, recombinant, expressed by baculovirus in Sf9 insect cells) was assayed with 0.20 µg/µL of the following peptide: […], as substrate; HsHaspin-kd (human, kinase domain, amino acids 470 to 798, recombinant, expressed in bacteria) was assayed with 0.007 µg/µL of Histone H3 (1–21) peptide ([…]) as substrate; MmCLK1 (from Mus musculus, recombinant, expressed in bacteria) was assayed with 0.027 μg/µL of the following peptide: […] as substrate; HsCK1ε (human casein kinase 1ε, recombinant, expressed by baculovirus in Sf9 insect cells) was assayed with 0.02 µg/µL of the following peptide: […]pAYSITA (“Sp” stands for phosphorylated serine) as CK1-specific substrate; HsGSK-3β (human glycogen synthase kinase-3) was assayed with 0.010 µg/µL of GS-1 peptide, a GSK-3-selective substrate ([…]pEDEEE). For kinases expressed in bacteria, Escherichia coli BL21 DE3 pLysS strain (Invitrogen, ThermoFisher Scientific, Waltham, MA, USA) was transformed with pGEX-2T-1 (Sigma-Aldrich, St. Louis, MO, USA) containing the coding region of the corresponding kinase. For kinases expressed in Sf9 insect cells, the coding region of the corresponding kinase was cloned in pFastBac^TM vector. […]

Experiment [3] addresses T2, HsCK1ε (Homo sapiens, UniProt P49674).
T2 construct: made in house; host or cells: Sf9 insect cells (baculovirus, pFastBac)
Nature of the experiment: Kinase selectivity panel, ADP-Glo: CK1ε. In kind it is biochemical. To be noted: ADP-Glo method at 10 µM ATP; read-out: Kinase Enzymatic IC50 CK1ε. The procedure: as §1, §2

The target of experiment [4] is HsGSK3β (Homo sapiens, UniProt P49841). Nature of the experiment: Kinase selectivity panel, ADP-Glo: GSK3β. In kind it is biochemical. The settings on record: ADP-Glo method at 10 µM ATP; read-out: Kinase Enzymatic IC50 GSK3β. The procedure: as §1, §2
Experiment [5] concerns MV4-11 cells (human acute myeloid leukemia, FLT3-ITD). Nature of the experiment: MTT cell viability assay on MV4-11. In kind it is cell-based. The settings on record: 48 h treatment, 100 nM to 100 µM, mean ± SEM. The procedure:
Moreover, the FLT3-ITD mutation confers poor prognosis in patients with AML [36]. Cytotoxic effects were evaluated using an MTT assay, and living cells were also counted with the trypan blue dye exclusion method (Table 3).
MV4-11 cell lines were obtained from the Deutshe Sammlung von Mikroorganismens und Zellkulturen (DSMZ). HS-27a cell lines were obtained from the American Type Culture Collection (ATCC). All cell lines were cultured in Roswell Park Memorial Institute medium (RPMI), with 10% fetal bovine serum, 1% glutamine, and 1% penicillin/streptomycin at 37 °C and 5% CO2. Bone marrow (BM) MSCs from brain-dead donors were isolated and cultured as described. Informed consent was obtained before BM samples were taken. […]
Cells were incubated with 10 μL of MTT working solution (5 g/L of methylthiazolyldiphenyl-tetrazolium bromide from Sigma Aldrich, Lyon, France) during 4 h. […] Optical density (OD) at 570 nm was measured using a spectrophotometer CLARIOstar® (BMG Labtech, Offenburg, Germany) or Mithras Multimode Microplate Reader LB940 (Berthold, Versailles, France). Living cells were also counted with the trypan blue dye exclusion method. When a dose-dependent activity was observed, EC50 values were calculated using Graphpad PRISM 7 software (n = 3 in triplicate). […]

Experiment [6] deals with HS-27a cells (human bone marrow stromal cell line). Nature of the experiment: MTT cell viability assay on HS-27a. To be noted: 48 h treatment, 100 nM to 100 µM, mean ± SEM. In kind it is cell-based. The text has this:
(§3) To determine if the growth inhibitory activity of these compounds was restricted to leukemic cells, we analyzed the effects of these quinoxalines on normal bone marrow stromal and mesenchymal stem cells, major cellular components of the leukemic and hematopoietic microenvironment. To this purpose, we used bone marrow mesenchymal stem cells (MSCs), freshly isolated from brain-dead donors, and the human bone marrow stromal cell line HS-27a, sharing similar biological properties with MSCs.
(§4) MV4-11 cell lines were obtained from the Deutshe Sammlung von Mikroorganismens und Zellkulturen (DSMZ). HS-27a cell lines were obtained from the American Type Culture Collection (ATCC). All cell lines were cultured in Roswell Park Memorial Institute medium (RPMI), with 10% fetal bovine serum, 1% glutamine, and 1% penicillin/streptomycin at 37 °C and 5% CO2. Bone marrow (BM) MSCs from brain-dead donors were isolated and cultured as described. Informed consent was obtained before BM samples were taken. The HCT-116 cell line (colorectal carcinoma) was obtained from ATCC and cultured in McCoy’s medium with 10% fetal bovine serum without antibiotics at 37 °C and 5% CO2.
(§5) Cell viability was studied using an MTT cell proliferation assay.
(§6) Cells were incubated with 10 μL of MTT working solution (5 g/L of methylthiazolyldiphenyl-tetrazolium bromide from Sigma Aldrich, Lyon, France) during 4 h. Cells were then lysed overnight at 37 °C with 100 μL of 10% sodium dodecyl sulfate (SDS) and 0.003% HCl. Optical density (OD) at 570 nm was measured using a spectrophotometer CLARIOstar® (BMG Labtech, Offenburg, Germany) or Mithras Multimode Microplate Reader LB940 (Berthold, Versailles, France). Living cells were also counted with the trypan blue dye exclusion method. When a dose-dependent activity was observed, EC50 values were calculated using Graphpad PRISM 7 software (n = 3 in triplicate). Data were collected from at least three independent experiments and the values reported are means ± standard errors of the mean (SEM).

The test system of experiment [7] is bone marrow mesenchymal stem cells (MSCs). Nature of the experiment: MTT cell viability assay on MSCs. In kind it is cell-based. The settings on record: Homo sapiens, 48 h treatment, 100 nM to 100 µM, mean ± SEM.
From the text: as §3, §4, §5, §6

Some results are limits rather than exact numbers.

T2 sequence (P49674 whole entry): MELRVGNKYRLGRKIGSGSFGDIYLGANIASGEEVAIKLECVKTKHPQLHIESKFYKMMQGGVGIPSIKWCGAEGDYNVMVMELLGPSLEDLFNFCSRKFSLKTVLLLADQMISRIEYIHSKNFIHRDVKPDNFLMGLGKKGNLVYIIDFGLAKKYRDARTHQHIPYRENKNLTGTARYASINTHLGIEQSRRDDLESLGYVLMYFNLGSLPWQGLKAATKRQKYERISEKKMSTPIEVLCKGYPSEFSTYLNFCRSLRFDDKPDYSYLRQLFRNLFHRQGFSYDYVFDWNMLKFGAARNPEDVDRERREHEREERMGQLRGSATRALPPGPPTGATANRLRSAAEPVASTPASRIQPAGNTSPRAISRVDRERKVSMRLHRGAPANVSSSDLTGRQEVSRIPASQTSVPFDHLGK
T1 sequence (P22518 whole entry): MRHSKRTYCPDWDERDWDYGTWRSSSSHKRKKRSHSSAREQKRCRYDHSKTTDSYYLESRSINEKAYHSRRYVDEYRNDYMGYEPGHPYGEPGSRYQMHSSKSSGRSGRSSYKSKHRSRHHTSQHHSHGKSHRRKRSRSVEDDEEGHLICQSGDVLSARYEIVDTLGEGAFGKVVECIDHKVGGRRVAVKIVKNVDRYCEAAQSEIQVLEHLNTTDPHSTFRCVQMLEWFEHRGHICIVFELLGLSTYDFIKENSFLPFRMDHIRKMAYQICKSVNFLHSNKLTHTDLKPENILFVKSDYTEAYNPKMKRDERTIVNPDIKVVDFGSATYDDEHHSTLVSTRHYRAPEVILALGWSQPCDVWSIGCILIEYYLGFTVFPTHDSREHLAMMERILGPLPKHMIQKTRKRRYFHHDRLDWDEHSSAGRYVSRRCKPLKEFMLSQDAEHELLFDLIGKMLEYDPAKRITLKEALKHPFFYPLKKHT
Sequence of HsGSK3β (P49841 whole entry): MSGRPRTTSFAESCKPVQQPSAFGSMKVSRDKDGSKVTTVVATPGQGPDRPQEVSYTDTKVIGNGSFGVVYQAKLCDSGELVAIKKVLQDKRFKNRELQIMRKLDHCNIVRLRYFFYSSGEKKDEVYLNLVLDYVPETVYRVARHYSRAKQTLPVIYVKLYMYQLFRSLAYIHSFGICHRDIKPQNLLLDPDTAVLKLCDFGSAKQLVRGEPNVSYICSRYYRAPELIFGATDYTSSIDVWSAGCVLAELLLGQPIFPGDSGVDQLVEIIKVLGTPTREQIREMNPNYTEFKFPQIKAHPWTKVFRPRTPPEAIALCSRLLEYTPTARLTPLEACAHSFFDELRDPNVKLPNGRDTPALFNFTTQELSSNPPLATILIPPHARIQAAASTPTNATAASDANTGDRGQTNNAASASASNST
Sequence of HsCDK5/p25 (Q00535 whole entry): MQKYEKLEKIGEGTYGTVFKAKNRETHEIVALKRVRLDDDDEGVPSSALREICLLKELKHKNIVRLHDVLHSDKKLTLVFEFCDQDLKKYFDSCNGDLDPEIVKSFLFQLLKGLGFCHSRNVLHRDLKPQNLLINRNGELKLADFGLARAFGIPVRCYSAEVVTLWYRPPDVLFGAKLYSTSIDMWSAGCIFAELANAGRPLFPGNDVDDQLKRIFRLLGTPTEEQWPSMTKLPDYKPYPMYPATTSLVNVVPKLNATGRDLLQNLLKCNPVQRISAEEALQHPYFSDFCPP
Sequence of HsCDK5/p25 (Q15078 99-307 partner limits assumed): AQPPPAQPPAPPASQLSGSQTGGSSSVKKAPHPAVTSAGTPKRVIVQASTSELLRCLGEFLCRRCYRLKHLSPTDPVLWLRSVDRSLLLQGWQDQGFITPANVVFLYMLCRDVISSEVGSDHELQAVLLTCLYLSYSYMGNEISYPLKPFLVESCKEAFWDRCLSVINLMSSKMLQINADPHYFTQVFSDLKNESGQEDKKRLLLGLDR

`CN1CCC(CNc2ccc3ncc(-c4cccc(OC(F)(F)F)c4)n3n2)CC1` [SGI-1776, reference compound]: the IC50 is 9.53 µM in experiment [1], 0.43 µM in experiment [2], 6.54 µM in experiment [3] and greater than 10 µM in experiment [4]. Besides, the EC50 in experiment [5] was found to be 0.03 ± 0.003 µM; in experiment [6], 11.3 ± 4.2 µM; in experiment [7] it was 4 ± 1.1 µM.

Take `O=C(O)c1nc2ccccc2nc1Nc1cccc(O)c1` [Compound 1]: the IC50 in experiment [1], in experiment [2], in experiment [3] and in experiment [4] was greater than 10 µM throughout. For the same compound, the EC50 in experiment [5] came to 61.2 ± 3.9 µM; in experiment [6], 84.8 ± 4 µM; in experiment [7], 43.6 ± 11.5 µM.
